Reference: patent US7235580B2, “Mitotic kinesin inhibitors” (Merck & Co., Inc., priority 2002, dated 2007)

Target: T1, human KSP motor domain (KSP(367H)) (Homo sapiens, UniProt P52732)
T1 construct: were used to amplify the motor domain and the neck linker region; made in house; host or cells: E. coli BL21 (DE3), pRSETa
T1 sequence (P52732 18-359 limits assumed): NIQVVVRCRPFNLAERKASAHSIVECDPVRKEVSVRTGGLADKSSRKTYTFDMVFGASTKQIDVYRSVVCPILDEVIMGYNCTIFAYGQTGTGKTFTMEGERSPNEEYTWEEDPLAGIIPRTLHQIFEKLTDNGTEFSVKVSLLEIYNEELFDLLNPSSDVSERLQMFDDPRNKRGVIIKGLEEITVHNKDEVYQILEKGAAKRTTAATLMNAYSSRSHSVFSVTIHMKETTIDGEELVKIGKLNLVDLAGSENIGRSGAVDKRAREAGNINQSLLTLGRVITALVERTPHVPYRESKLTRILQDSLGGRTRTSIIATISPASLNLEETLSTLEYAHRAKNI
Experiment: Kinesin ATPase In Vitro Assay
Type: biochemical
Conditions: kinesin motor domain with microtubules, 1 mM ATP, 23° C.; free phosphate by quinaldine red/ammonium molybdate
Source text: I. Kinesin ATPase In Vitro Assay
Cloning and Expression of Human Poly-histidine Tagged KSP Motor Domain (KSP(367H))
Plasmids for the expression of the human KSP motor domain construct were cloned by PCR using a pBluescript full length human KSP construct (Blangy et al., Cell, vol. 83, pp 1159-1169, 1995) as a template. The N-terminal primer 5′-[…] (SEQ.ID.NO.: 1) and the C-terminal primer 5′-[…] […] (SEQ.ID.NO.: 2) were used to amplify the motor domain and the neck linker region. The PCR products were digested with AseI and XhoI, ligated into the NdeI/XhoI digestion product of pRSETa (Invitrogen) and transformed into E. coli BL21 (DE3).
Cells were grown at 37° C. to an OD600 of 0.5. After cooling the culture to room temperature expression of KSP was induced with 100 μM IPTG and incubation was continued overnight. Cells were pelleted by centrifugation and washed once with ice-cold PBS. Pellets were flash-frozen and stored −80° C.
Cell pellets were thawed on ice and resuspended in lysis buffer (50 mM K-HEPES, pH 8.0, 250 mM KCl, 0.1% Tween, 10 mM imidazole, 0.5 mM Mg-ATP, 1 mM PMSF, 2 mM benzimidine, 1× complete protease inhibitor cocktail (Roche)). Cell suspensions were incubated with 1 mg/ml lysozyme and 5 mM β-mercaptoethanol on ice for 10 minutes, followed by sonication (3×30 sec). All subsequent procedures were performed at 4° C. Lysates were centrifuged at 40,000×g for 40 minutes. Supernatants were diluted and loaded onto an SP Sepharose column (Pharmacia, 5 ml cartridge) in buffer A (50 mM K-HEPES, pH 6.8, 1 mM MgCl2, 1 mM EGTA, 10 μM Mg-ATP, 1 mM DTT) and eluted with a 0 to 750 mM KCl gradient in buffer A. Fractions containing KSP were pooled and incubated with Ni-NTA resin (Qiagen) for one hour. The resin was washed three times with buffer B (Lysis buffer minus PMSP and protease inhibitor cocktail), followed by three 15-minute incubations and washes with buffer B. Finally, the resin was incubated and washed for 15 minutes three times with buffer C (same as buffer B except for pH 6.0) and poured into a column. KSP was eluted with elution buffer (identical to buffer B except for 150 mM KCl and 250 mM imidazole). KSP-containing fractions were pooled, made 10% in sucrose, and stored at −80° C.
Microtubules are prepared from tubulin isolated from bovine brain. Purified tubulin (>97% MAP-free) at 1 mg/ml is polymerized at 37° C. in the presence of 10 μM paclitaxel, 1 mM DTT, 1 mM GTP in BRB80 buffer (80 mM K-PIPES, 1 mM EGTA, 1 mM MgCl2 at pH 6.8). The resulting microtubules are separated from non-polymerized tubulin by ultracentrifugation and removal of the supernatant. The pellet, containing the microtubules, is gently resuspended in 10 μM paclitaxel, 1 mM DTT, 50 μg/ml ampicillin, and 5 μg/ml chloramphenicol in BRB80.
The kinesin motor domain is incubated with microtubules, 1 mM ATP (1:1 MgCl2: Na-ATP), and compound at 23° C. in buffer containing 80 mM K-HEPES (pH 7.0), 1 mM EGTA, 1 mM DTT, 1 mM MgCl2, and 50 mM KCl. The reaction is terminated by a 2-10 fold dilution with a final buffer composition of 80 mM HEPES and 50 mM EDTA. Free phosphate from the ATP hydrolysis reaction is measured via a quinaldine red/ammonium molybdate assay by adding 150 μl of quench C buffer containing a 2:1 ratio of quench A:quench B. Quench A contains 0.1 mg/ml quinaldine red and 0.14% polyvinyl alcohol; quench B contains 12.3 mM ammonium molybdate tetrahydrate in 1.15 M sulfuric acid. The reaction is incubated for 10 minutes at 23° C., and the absorbance of the phospho-molybdate complex is measured at 540 nm.

Row | SMILES | IC50 [µM]
1 | CN(C)C(=O)N1CC(c2cc(F)ccc2F)=CC1(CCC(=O)Nc1ccccc1)c1ccccc1 (centres unmarked) [Compound 24-2, 2-(3-anilino-3-oxopropyl)-4-(2,5-difluorophenyl)-N,N-dimethyl-2-phenyl-2,5-dihydro-1H-pyrrole-1-carboxamide] | ≤ 50
2 | CN(C)C(=O)N1CC(c2cc(F)ccc2F)=CC1(CCC(=O)NN)c1ccccc1 (centres unmarked) [Compound 25-1, 4-(2,5-difluorophenyl)-2-(3-hydrazino-3-oxopropyl)-N,N-dimethyl-2-phenyl-2,5-hydro-1H-pyrrole-1-carboxamide] | ≤ 50
3 | CN(C)CCCC1(c2ccccc2)C=C(c2cc(F)ccc2F)CN1C(=O)N(C)C (centres unmarked) [Compound 4-4, 4-(2,5-Difluorophenyl)-2-[3-(dimethylamino)propyl]-N,N-dimethyl-2-phenyl-2,5-dihydro-1H-pyrrole-1-carboxamide] | ≤ 50
4 | CN(C)CCNCC1(c2ccccc2)C=C(c2cc(F)ccc2F)CN1C(=O)N(C)C (centres unmarked) [Compound 3-2, 4-(2,5-Difluorophenyl)-2-({[2-(dimethylamino)ethyl]amino}methyl)-N,N-dimethyl-2-phenyl-2,5-dihydro-1H-pyrrole-1-carboxamide] | ≤ 50
5 | CN(C)C(=O)N1CC(c2cc(F)ccc2F)=C[C@@]1(CCC(N)C(F)F)c1ccccc1 (stereo partly drawn) [Compound 31-3, (2S)-2-(3-amino-4,4-difluorobutyl)-4-(2,5-difluorophenyl)-N,N-dimethyl-2-phenyl-2,5-dihydro-1H-pyrrole-1-carboxamide] | ≤ 50
6 | CN(C)CCCC1(c2ccccc2)C=C(c2cc(F)ccc2F)CN1C(=O)C(C)(C)O (centres unmarked) [Compound 29-3, 1-{4-(2,5-difluorophenyl)-2-[3-(dimethylamino)propyl]-2-phenyl-2,5-dihydro-1-pyrrol-1-yl}-2-methyl-1-oxopropan-2-ol] | ≤ 50
7 | CN(C)C(=O)N1CC(c2cc(Cl)ccc2F)=CC1(CCCNC(N)=O)c1ccccc1 (centres unmarked) [Compound 23-1, 2-{3-[(aminocarbonyl)amino]propyl}-4-(5-chloro-2-fluorophenyl)-N,N-dimethyl-2-phenyl-2,5-dihydro-1H-pyrrole-1-carboxamide] | ≤ 50
8 | CN(C)C(=O)N1CC(c2cc(F)ccc2F)=CC1(COCCN)c1ccccc1 (centres unmarked) [Compound 2-3, 2-[(2-Aminoethoxy)methyl]-4-(2,5-difluorophenyl)-N,N-dimethyl-2-phenyl-2,5-dihydro-1H-pyrrole-1-carboxamide] | ≤ 50
9 | COCC1(c2ccccc2)C=C(c2cc(F)ccc2F)CN1C(=O)N(C)C (centres unmarked) [Compound 2-1, 4-(2,5-Difluorophenyl)-2-(methoxymethyl)-N,N-dimethyl-2-phenyl-2,5-dihydro-1H-pyrrole-1-carboxamide] | ≤ 50
10 | COC(=O)NCCCC1(c2ccccc2)C=C(c2cc(Cl)ccc2F)CN1C(=O)N(C)C (centres unmarked) [Compound 22-1, methyl 3-{4-(5-chloro-2-fluorophenyl)-1-[(dimethylamino)carbonyl]-2-phenyl-2,5-dihydro-1H-pyrrol-2-yl}propylcarbamate] | ≤ 50

Second part, the compound after the results:

Row | IC50 [µM] | SMILES
11 | ≤ 50 | CN(C)C(=O)N1CC(c2cc(F)ccc2F)=CC1(COCCO)c1ccccc1 (centres unmarked) [Compound 2-2, 4-(2,5-Difluorophenyl)-2-[(2-hydroxyethoxy)methyl]-N,N-dimethyl-2-phenyl-2,5-dihydro-1H-pyrrole-1-carboxamide]
12 | ≤ 50 | CN(C(=O)N1CC(c2cc(F)ccc2F)=C[C@@]1(CO)c1ccccc1)C1CCN(C2CC2)CC1 [Compound 15-1, (2S)-N-(1-cyclopropylpiperidin-4-yl)-4-(2,5-difluorophenyl)-2-(hydroxymethyl)-N-methyl-2-phenyl-2,5-dihydro-1H-pyrrole-1-carboxamide]
13 | ≤ 50 | CN(C(=O)N1CC(c2cc(F)ccc2F)=CC1(CO)c1ccccc1)C1CCN(CC(F)F)CC1 (centres unmarked) [Compound 10-1, N-[1-(2,2-difluoroethyl)piperidin-4-yl]-4-(2,5-difluorophenyl)-2-(hydroxymethyl)-N-methyl-2-phenyl-2,5-dihydro-1H-pyrrole-1-carboxamide]
14 | ≤ 50 | CN1CCC(N(C)C(=O)N2CC(c3cc(F)ccc3F)=C[C@@]2(CO)c2ccccc2)CC1 (stereo in doubt) [Compound 1-10, 4-(2,5-Difluorophenyl)-2-(hydroxymethyl)-N-methyl-N-(1-methylpiperidin-4-yl)-2-phenyl-2,5-dihydro-1H-pyrrole-1-carboxamide]
15 | ≤ 50 | CN(C(=O)N1CC(c2cc(F)ccc2F)=CC1(CO)c1ccccc1)C1CCN(CS(C)(=O)=O)CC1 (centres unmarked) [Compound 13-1, 4-(2,5-difluorophenyl)-2-(hydroxymethyl)-N-methyl-N-{1-[(methylsulfonyl)methyl]piperidin-4-yl}-2-phenyl-2,5-dihydro-1H-pyrrole-1-carboxamide]
16 | ≤ 50 | CN(C(=O)N1CC(c2cc(F)ccc2F)=C[C@@]1(CO)c1ccccc1)C1CCN(CCF)CC1 [Compound 12-1, (2S)-4-(2,5-difluorophenyl)-N-[1-(2-fluoroethyl)piperidin-4-yl]-2-(hydroxymethyl)-N-methyl-2-phenyl-2,5-dihydro-1H-pyrrole-1-carboxamide]
17 | ≤ 50 | CN(C(=O)N1CC(c2cc(F)ccc2F)=CC1(CO)c1ccccc1)C1CCN(C(CF)CF)CC1 (centres unmarked) [Compound 14-1]
18 | ≤ 50 | CN(C)C(=O)N1CC(c2cc(F)ccc2F)=CC1(CCCN)c1ccccc1 (centres unmarked) [Compound 4-3, 2-(3-Aminopropyl)-4-(2,5-difluorophenyl)-N,N-dimethyl-2-phenyl-2,5-dihydro-1H-pyrrole-1-carboxamide]
19 | ≤ 50 | CN(C)C(=O)N1CC(c2cc(F)ccc2F)=CC1(CO)c1ccccc1 (centres unmarked) [Compound 1-9, 4-(2,5-Difluorophenyl)-2-(hydroxymethyl)-N,N-dimethyl-2-phenyl-2,5-dihydro-1H-pyrrole-1-carboxamide]
20 | ≤ 50 | CN(C(=O)N1CC(c2cc(F)ccc2F)=CC1(CO[Si](C)(C)C(C)(C)C)c1ccccc1)C1CCN(CC(=O)OCc2ccccc2)CC1 (centres unmarked) [Compound 16-1]
21 | ≤ 50 | CN(C)CC(=O)N1CCC(N(C)C(=O)N2CC(c3cc(F)ccc3F)=CC2(CO)c2ccccc2)CC1 (centres unmarked) [Compound 7-3, 4-(2,5-difluorophenyl)-N-[1-(N,N-dimethylglycyl)piperidin-4-yl]-2-(hydroxymethyl)-N-methyl-2-phenyl-2,5-dihydro-1H-pyrrole-1-carboxamide]
22 | ≤ 50 | CN(C)CCCC1(c2ccccc2)C=C(c2cc(F)ccc2F)CN1C(=O)N(C)C1CCOCC1 (centres unmarked) [Compound 28-3, 4-(2,5-difluorophenyl)-2-[3-(dimethylamino)propyl]-N-methyl-2-phenyl-N-tetrahydro-2H-pyran-4-yl-2,5-dihydro-1H-pyrrole-1-carboxamide]
23 | ≤ 50 | COCC1(c2ccccc2)C=C(c2cc(F)ccc2F)CN1C(=O)N(C)C1CCN(C)CC1 (centres unmarked) [Compound 18-2, 4-(2,5-difluorophenyl)-2-(methoxymethyl)-N-methyl-N-(1-methylpiperidin-4-yl)-2-phenyl-2,5-dihydro-1H-pyrrole-1-carboxamide]
